Like-named read-outs stand apart in the source and are kept apart here.
Tests used:
[1] = target: T1, JAK2 JH2 WT (V536-D812) [W659A, W777A, F794H solubilizing mutations] (Homo sapiens, UniProt O60674, F794H/W659A/W777A); assay: Surface Plasmon Resonance (SPR) binding assay, JAK2 JH2 domain
T1 construct: **JAK2 JH2 WT (V536-D812) [W659A, W777A, F794H solubilizing mutations]; C-thrombin-avi-His6; thrombin cleavage site (C); His6 (C); purchased Biortus
In short: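 Kinetics came from 1:1 fits of single-cycle runs at 20 °C: four 3-fold dilutions from 5 uM for JH1 or 500 nM for JH2, 60 s association, and 300 s or 1200 s dissociation respectively. Protein was freshly captured per compound in the presence of 10 uM stabilizer compound, with running buffer of pH 7.5 HEPES/NaCl/glycerol/DTT plus 2% DMSO.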

[2] = system: TF1 JAK2 V617F STAT3 reporter; assay: Cellular TF1 STAT3 assay (luciferase reporter), JAK2 V617F; format: cell-based; settings: read-out: Cell PD-TF1 JAK2 V617F STAT3 (IC50)
In short: (§1)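 Compounds were dispensed as 1000× DMSO stocks (10 mM top, 1:3 steps), then V617F JAK2 TF1 cells carrying a STAT3 or STAT5 luciferase reporter were added. After 18-20 h at 37 °C, ONE-glo reagent was added and luminescence measured.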

[3] = system: TF1 JAK2 V617F STAT5 reporter; assay: Cellular TF1 STAT5 assay (luciferase reporter), JAK2 V617F; format: cell-based; settings: read-out: Cell PD TF1 V617F STAT5 (IC50)
In short: as §1

[4] = Homo sapiens, TF-1, TF1 cells, JAK2 V617F

T1 sequence (O60674 536-812 W659A/W777A/F794H): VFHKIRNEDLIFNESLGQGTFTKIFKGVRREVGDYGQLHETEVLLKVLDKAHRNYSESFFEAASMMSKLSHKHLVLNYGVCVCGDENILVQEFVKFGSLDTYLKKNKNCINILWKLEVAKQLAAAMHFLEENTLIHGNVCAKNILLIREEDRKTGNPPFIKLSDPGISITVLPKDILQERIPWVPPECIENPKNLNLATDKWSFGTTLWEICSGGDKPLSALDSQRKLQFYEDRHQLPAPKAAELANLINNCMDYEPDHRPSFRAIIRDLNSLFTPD

Row | Kd ([1]; SPR, JAK2 JH2 domain) | IC50 ([2]; TF1 JAK2 V617F) | IC50 ([3]; TF1 JAK2 V617F) | Kd [1] | IC50 [2, 4] | IC50 [3, 4] | Compound
1 | 0.01 to 10 nM | 50 to 500 nM | 50 to 500 nM |  |  |  | CNC(=O)c1nnc(NC(=O)C2CC2)cc1Nc1cccc(-c2cnn(C3CN(Cc4cccc(OC)n4)C3)c2)c1OC [Compound 107]
2 |  |  |  | 0.01 to 10 nM | 500 to 5000 nM | 500 to 5000 nM | CNC(=O)c1nnc(NC(=O)C2CC2)cc1Nc1cccc(-c2ccc(C3CN(Cc4cc(S(C)(=O)=O)ccn4)C3)nc2)c1OC [Compound 330]
3 | 0.01 to 10 nM | 500 to 5000 nM | 500 to 5000 nM |  |  |  | CNC(=O)c1nnc(NC(=O)C2CC2)cc1Nc1ccc(C)c(-c2cnc(C(=O)N(C)Cc3ccn(C)n3)c(F)c2)c1OC [Compound 47]
4 |  |  |  | 50 to 500 nM | 5000 to 100000 nM | 5000 to 100000 nM | CNC(=O)c1nnc(NC(=O)C2CC2)cc1Nc1cccc(-c2cc(C3CN(Cc4cccc(C#N)n4)C3)n(C)n2)c1OC [Compound 202]
5 | 0.01 to 10 nM | 5000 to 100000 nM | 5000 to 100000 nM |  |  |  | CNC(=O)c1nnc(NC(=O)C2CC2)cc1Nc1ccc(C)c(-c2cnc(C(=O)N(C)C[C@H]3CCN(C)C3=O)c(F)c2)c1OC (single isomer, unassigned) [Compound 117]
6 |  |  |  | 0.01 to 10 nM | 500 to 5000 nM | 500 to 5000 nM | CNC(=O)c1nnc(NC(=O)C2CC2)cc1Nc1cccc(-c2cnn([C@@H]3CN(Cc4cccc(C#N)n4)[C@H]3C)c2)c1OC [Compound 310]
7 |  |  |  | 0.01 to 10 nM | 50 to 500 nM | 50 to 500 nM | CNC(=O)c1nnc(NC(=O)C2CC2)cc1Nc1cccc(-c2cnn(C3CN(Cc4cccc(C#CCO)n4)C3)c2)c1OC [Compound 255]
8 |  |  |  | 50 to 500 nM | 5000 to 100000 nM | 5000 to 100000 nM | CNC(=O)c1nnc(NC(=O)C2CC2)cc1Nc1cccc(-c2ccc(C3CN(Cc4cnn(C)c4)C3)nc2)c1OC [Compound 264]
9 |  |  |  | 0.01 to 10 nM | 10 to 50 nM | 10 to 50 nM | CNC(=O)c1nnc(NC(=O)C2CC2)cc1Nc1cccc(-c2cnn(C3CN(Cc4cccc(C(=O)N5CCCC5)n4)C3)c2)c1OC [Compound 356]
10 |  |  |  | 0.01 to 10 nM | 50 to 500 nM | 50 to 500 nM | CNC(=O)c1nnc(NC(=O)C2CC2)cc1Nc1cccc(-c2cnn(C3CN([C@@H](C)c4cccc(C#N)n4)C3)c2)c1OC (single isomer, unassigned) [Compound 286]
11 |  |  |  | 0.01 to 10 nM | 50 to 500 nM | 500 to 5000 nM | CNC(=O)c1nnc(NC(=O)C2CC2)cc1Nc1cccc(-c2ccc(C(=O)N(C)Cc3nccc(C#N)n3)nc2)c1OC [Compound 261]
12 | 0.01 to 10 nM | 500 to 5000 nM | 500 to 5000 nM |  |  |  | CNC(=O)c1nnc(NC(=O)C2CC2)cc1Nc1cccc(-c2ccc(C(=O)N(C)Cc3cnsc3)nc2)c1OC [Compound 195]
13 | 0.01 to 10 nM | 500 to 5000 nM | 500 to 5000 nM |  |  |  | CNC(=O)c1nnc(NC(=O)C2CC2)cc1Nc1cccc(-c2ccc(C(=O)N(C)[C@@H](C)c3ccn(C)n3)nc2)c1OC (single isomer, unassigned) [Compound 160]
14 |  |  |  | 0.01 to 10 nM | 50 to 500 nM | 50 to 500 nM | CNC(=O)c1nnc(NC(=O)C2CC2)cc1Nc1cccc(-c2cnn(C3CN(Cc4nccc5cc[nH]c45)C3)c2)c1OC [Compound 254]
15 |  |  |  | 0.01 to 10 nM | 50 to 500 nM | 50 to 500 nM | CNC(=O)c1nnc(NC(=O)C2CC2)cc1Nc1cccc(-c2cnn(C3CN(Cc4cccc(C5CCC5)n4)C3)c2)c1OC [Compound 258]
16 |  |  |  | 0.01 to 10 nM | 50 to 500 nM | 50 to 500 nM | CNC(=O)c1nnc(NC(=O)C2CC2)cc1Nc1cccc(-c2cnn(C3CN(Cc4cccc5c(F)cnn45)C3)c2)c1OC [Compound 381]
17 |  |  |  | 0.01 to 10 nM | 50 to 500 nM | 50 to 500 nM | CNC(=O)c1nnc(NC(=O)C2CC2)cc1Nc1cccc(-c2cnn(C3CN(Cc4cccc5nccn45)C3)c2)c1OC [Compound 374]
18 | 0.01 to 10 nM | 500 to 5000 nM | 500 to 5000 nM |  |  |  | CNC(=O)c1nnc(NC(=O)C2CC2)cc1Nc1cccc(-c2cnn(C3CN(Cc4nnc(C)s4)C3)c2)c1OC [Compound 144]

Row | Kd ([1]; SPR, JAK2 JH2 domain) | IC50 ([2]; TF1 JAK2 V617F) | IC50 ([3]; TF1 JAK2 V617F) | Kd [1] | IC50 [2, 4] | IC50 [3, 4] | Compound
19 | 10 to 50 nM | 500 to 5000 nM | 5000 to 100000 nM |  |  |  | CNC(=O)c1nnc(NC(=O)C2CC2)cc1Nc1cccc(-c2ccc(C(=O)N(C)Cc3cn4c(n3)CCCC4)nc2)c1OC [Compound 84]
20 |  |  |  | 0.01 to 10 nM | 50 to 500 nM | 50 to 500 nM | CNC(=O)c1nnc(NC(=O)C2CC2)cc1Nc1cccc(-c2cnn(C3CN(Cc4cccc(C(=O)N5CC(F)(F)C5)n4)C3)c2)c1OC [Compound 311]
21 | 0.01 to 10 nM | 500 to 5000 nM | 50 to 500 nM |  |  |  | CNC(=O)c1nnc(NC(=O)C2CC2)cc1Nc1cccc(-c2cn(C3CN(Cc4cccc(C#N)n4)C3)nn2)c1OC [Compound 183]
22 | 0.01 to 10 nM | 500 to 5000 nM | 500 to 5000 nM |  |  |  | CNC(=O)c1nnc(NC(=O)C2CC2)cc1Nc1cccc(-c2ccc(C(=O)N(C)Cc3cccnn3)nc2)c1OC [Compound 45]
23 |  |  |  | 0.01 to 10 nM | 50 to 500 nM | 50 to 500 nM | CNC(=O)c1nnc(NC(=O)C2CC2)cc1Nc1ccc(Cl)c(-c2ccc(C(=O)N(C)Cc3cc(C#N)n(C)n3)nc2)c1OC [Compound 205]
24 |  |  |  | 0.01 to 10 nM | 500 to 5000 nM | 500 to 5000 nM | CNC(=O)c1nnc(NC(=O)C2CC2)cc1Nc1cccc(-c2ccc(C(=O)N(C)Cc3ncc(COC4CC4)s3)nc2)c1OC [Compound 362]
25 | 0.01 to 10 nM | 5000 to 100000 nM | 5000 to 100000 nM |  |  |  | CNC(=O)c1nnc(NC(=O)C2CC2)cc1Nc1cccc(-c2ccc(C(=O)N(CCOC)Cc3cccn(C)c3=O)nc2)c1OC [Compound 15]
26 | 0.01 to 10 nM | 500 to 5000 nM | 500 to 5000 nM |  |  |  | CNC(=O)c1nnc(NC(=O)C2CC2)cc1Nc1cccc(-c2ccc(C(=O)N(C)Cc3ccc(OC(F)F)cc3)nc2)c1OC [Compound 85]
27 | 0.01 to 10 nM | 500 to 5000 nM | 500 to 5000 nM |  |  |  | CNC(=O)c1nnc(NC(=O)C2CC2)cc1Nc1cccc(-c2ccc(C(=O)N(C)Cc3cncc(C#N)c3)nc2)c1OC [Compound 188]
28 | 10 to 50 nM | 5000 to 100000 nM | 5000 to 100000 nM |  |  |  | CNC(=O)c1nnc(NC(=O)C2CC2)cc1Nc1cccc(-c2ccc(C(=O)N3CCc4cccnc4C3)nc2)c1OC [Compound 108]
29 |  |  |  | 0.01 to 10 nM | 50 to 500 nM | 50 to 500 nM | CNC(=O)c1nnc(NC(=O)C2CC2)cc1Nc1ccc(C)c(-c2cnc(C(=O)N(C)Cc3cn(C)nc3C)c(F)c2)c1OC [Compound 230]
30 | 0.01 to 10 nM | 50 to 500 nM | 500 to 5000 nM |  |  |  | CNC(=O)c1nnc(NC(=O)C2CC2)cc1Nc1ccc(C)c(-c2ccc(C(=O)N(C)Cc3cc(C#N)ccn3)cc2)c1OC [Compound 103]
31 |  |  |  | 10 to 50 nM | 5000 to 100000 nM | 5000 to 100000 nM | CNC(=O)c1nnc(NC(=O)C2CC2)cc1Nc1cccc(-c2ccc(C(=O)N(C)C[C@@H]3CCCC3(F)F)nc2)c1OC (single isomer, unassigned) [Compound 225]
32 |  |  |  | 0.01 to 10 nM | 500 to 5000 nM | 500 to 5000 nM | CNC(=O)c1nnc(NC(=O)C2CC2)cc1Nc1ccc(C)c(-c2cn(C3CN(Cc4cccc(C#N)n4)C3)nn2)c1OC [Compound 268]
33 |  |  |  | 0.01 to 10 nM | 50 to 500 nM | 50 to 500 nM | CNC(=O)c1nnc(NC(=O)C2CC2)cc1Nc1cccc(-c2cnn(C3CN(Cc4cccc(NC(C)=O)n4)C3)c2)c1OC [Compound 260]
34 | 0.01 to 10 nM | 500 to 5000 nM | 500 to 5000 nM |  |  |  | CNC(=O)c1nnc(NC(=O)C2CC2)cc1Nc1cccc(-c2cnn(C3CN(Cc4ccccc4F)C3)c2)c1OC [Compound 90]
35 |  |  |  | 0.01 to 10 nM | 500 to 5000 nM | 500 to 5000 nM | CNC(=O)c1nnc(NC(=O)C2CC2)cc1Nc1cccc(-c2cnn([C@@H]3CN(Cc4cccnn4)[C@H]3C)c2)c1OC (stereo in doubt) [Compound 323]

From patent publication US20240368122A1, “JAK2 INHIBITORS AND METHODS OF USE THEREOF” (RELAY THERAPEUTICS, INC., priority 2021, published 2024)
